According to patent US6525001B1, “Substituted pyrimidine and pyridine herbicides” (Mid-American Commercialization Corporation, priority 1997, dated 2003):

How the values were obtained:
Assay in all cases: Test B pre-/postemergence
Type in all cases: in vivo
Set-up in all cases: key: 0 is no effect; 10 is complete control
rape (Brassica napus) = test system: rape (Brassica napus)
Outline: (§1)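 Response scores run from 0, meaning no effect, to 10, meaning complete control, assigned by eye relative to controls twelve to sixteen days after spraying. Treatment was both preemergence on planted seed and postemergence on plants at the 1- to 4-leaf stage.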

[1] = test system: wheat (Triticum aestivum)
Outline: as §1

[2] = test system: crabgrass (Digitaria sanguinalis)
Outline: as §1

[3] = test system: pigweed (Amaranthus retroflexus)
Outline: as §1

[4] = test system: giant foxtail (Setaria faberii)
Outline: as §1

[5] = test system: bedstraw (Galium aparine)
Outline: as §1

wild oat (Avena fatua) = test system: wild oat (Avena fatua)
Outline: as §1

[6] = test system: sugar beet (Beta vulgaris)
Outline: as §1

[7] = test system: cocklebur (Xanthium strumarium); details: for Plant response rating, Cocklebur: Postemergence
Outline: as §1

corn (Zea mays) = test system: corn (Zea mays)
Outline: as §1

[8] = test system: momingglory (Ipomoea hederacea)
Outline: as §1

[9] = test system: purple nutsedge (Cyperus rotundus)
Outline: as §1

soybean (Glycine max) = test system: soybean (Glycine max)
Outline: as §1

[10] = test system: velvetleaf (Abutilon theophrasti)
Outline: as §1

Cc1cnc(-c2ccc(C(F)(F)F)cc2)nc1Cc1cccc(OC(F)(F)F)c1 [Compound 15]
Plant response rating, Rape (rape (Brassica napus); Rate 62 g/ha, Postemergence): 9
Rape plant response rating (rape (Brassica napus); Rate 62 g/ha, Preemergence): 6
Plant response rating, Rape (rape (Brassica napus); Rate 125 g/ha, Postemergence): 9
Rape plant response rating (rape (Brassica napus); Rate 125 g/ha, Preemergence): 9
Plant response rating, Rape (rape (Brassica napus); Rate 250 g/ha, Postemergence): 9
Plant response rating, Rape (rape (Brassica napus); Rate 250 g/ha, Preemergence): 9
Plant response rating, Wheat ([1]; Rate 62 g/ha, Postemergence): 4
Wheat plant response rating ([1]; Rate 62 g/ha, Preemergence): 2
Plant response rating, Wheat ([1]; Rate 125 g/ha, Postemergence): 4
Wheat plant response rating ([1]; Rate 125 g/ha, Preemergence): 4
Plant response rating, Wheat ([1]; Rate 250 g/ha, Postemergence): 6
Plant response rating, Wheat ([1]; Rate 250 g/ha, Preemergence): 7
Plant response rating, Crabgrass ([2]; Rate 62 g/ha, Postemergence): 9
Crabgrass plant response rating ([2]; Rate 62 g/ha, Preemergence): 9
Plant response rating, Crabgrass ([2]; Rate 125 g/ha, Postemergence): 9
Crabgrass plant response rating ([2]; Rate 125 g/ha, Preemergence): 10
Plant response rating, Crabgrass ([2]; Rate 250 g/ha, Postemergence): 9
Plant response rating, Crabgrass ([2]; Rate 250 g/ha, Preemergence): 10
Plant response rating, Redroot pigweed ([3]; Rate 62 g/ha, Postemergence): 9
Redroot pigweed plant response rating ([3]; Rate 62 g/ha, Preemergence): 6
Plant response rating, Redroot pigweed ([3]; Rate 125 g/ha, Postemergence): 9
Redroot pigweed plant response rating ([3]; Rate 125 g/ha, Preemergence): 10
Plant response rating, Redroot pigweed ([3]; Rate 250 g/ha, Postemergence): 9
Plant response rating, Redroot pigweed ([3]; Rate 250 g/ha, Preemergence): 10
Plant response rating, Giant foxtail ([4]; Rate 62 g/ha, Postemergence): 7
Giant foxtail plant response rating ([4]; Rate 62 g/ha, Preemergence): 10
Plant response rating, Giant foxtail ([4]; Rate 125 g/ha, Postemergence): 7
Giant foxtail plant response rating ([4]; Rate 125 g/ha, Preemergence): 10
Plant response rating, Giant foxtail ([4]; Rate 250 g/ha, Postemergence): 8
Plant response rating, Giant foxtail ([4]; Rate 250 g/ha, Preemergence): 10
Plant response rating, Bedstraw ([5]; Rate 62 g/ha, Postemergence): 9
Bedstraw plant response rating ([5]; Rate 62 g/ha, Preemergence): 6
Plant response rating, Bedstraw ([5]; Rate 125 g/ha, Postemergence): 9
Bedstraw plant response rating ([5]; Rate 125 g/ha, Preemergence): 8
Plant response rating, Bedstraw ([5]; Rate 250 g/ha, Postemergence): 9
Plant response rating, Bedstraw ([5]; Rate 250 g/ha, Preemergence): 8
Plant response rating, Wild oats (wild oat (Avena fatua); Rate 62 g/ha, Postemergence): 6
Wild oats plant response rating (wild oat (Avena fatua); Rate 62 g/ha, Preemergence): 8
Plant response rating, Wild oats (wild oat (Avena fatua); Rate 125 g/ha, Postemergence): 7
Wild oats plant response rating (wild oat (Avena fatua); Rate 125 g/ha, Preemergence): 9
Plant response rating, Wild oats (wild oat (Avena fatua); Rate 250 g/ha, Postemergence): 9
Plant response rating, Wild oats (wild oat (Avena fatua); Rate 250 g/ha, Preemergence): 9
Plant response rating, Sugarbeets ([6]; Rate 62 g/ha, Postemergence): 9
Sugarbeets plant response rating ([6]; Rate 62 g/ha, Preemergence): 10
Plant response rating, Sugarbeets ([6]; Rate 125 g/ha, Postemergence): 9
Sugarbeets plant response rating ([6]; Rate 125 g/ha, Preemergence): 10
Plant response rating, Sugarbeets ([6]; Rate 250 g/ha, Postemergence): 10
Plant response rating, Sugarbeets ([6]; Rate 250 g/ha, Preemergence): 10
Plant response rating, Cocklebur ([7]; Rate 62 g/ha): 9
Plant response rating, Cocklebur ([7]; Rate 125 g/ha): 9
Cocklebur plant response rating ([7]; Rate 125 g/ha, Preemergence): 1
Plant response rating, Cocklebur ([7]; Rate 250 g/ha): 10
Plant response rating, Corn (corn (Zea mays); Rate 62 g/ha, Postemergence): 3
Corn plant response rating (corn (Zea mays); Rate 62 g/ha, Preemergence): 1
Plant response rating, Corn (corn (Zea mays); Rate 125 g/ha, Postemergence): 4
Corn plant response rating (corn (Zea mays); Rate 125 g/ha, Preemergence): 1
Plant response rating, Corn (corn (Zea mays); Rate 250 g/ha, Postemergence): 5
Plant response rating, Corn (corn (Zea mays); Rate 250 g/ha, Preemergence): 2
Plant response rating, Morningglory ([8]; Rate 62 g/ha, Postemergence): 8
Morningglory plant response rating ([8]; Rate 62 g/ha, Preemergence): 4
Plant response rating, Morningglory ([8]; Rate 125 g/ha, Postemergence): 8
Morningglory plant response rating ([8]; Rate 125 g/ha, Preemergence): 7
Plant response rating, Morningglory ([8]; Rate 250 g/ha, Postemergence): 9
Plant response rating, Morningglory ([8]; Rate 250 g/ha, Preemergence): 9
Plant response rating, Nutsedge ([9]; Rate 62 g/ha, Postemergence): 0
Nutsedge plant response rating ([9]; Rate 62 g/ha, Preemergence): 0
Plant response rating, Nutsedge ([9]; Rate 125 g/ha, Postemergence): 2
Nutsedge plant response rating ([9]; Rate 125 g/ha, Preemergence): 0
Plant response rating, Nutsedge ([9]; Rate 250 g/ha, Postemergence): 2
Plant response rating, Nutsedge ([9]; Rate 250 g/ha, Preemergence): 2
Plant response rating, Soybean (soybean (Glycine max); Rate 62 g/ha, Postemergence): 9
Soybean plant response rating (soybean (Glycine max); Rate 62 g/ha, Preemergence): 0
Plant response rating, Soybean (soybean (Glycine max); Rate 125 g/ha, Postemergence): 9
Soybean plant response rating (soybean (Glycine max); Rate 125 g/ha, Preemergence): 1
Plant response rating, Soybean (soybean (Glycine max); Rate 250 g/ha, Postemergence): 9
Plant response rating, Soybean (soybean (Glycine max); Rate 250 g/ha, Preemergence): 1
Plant response rating, Velvetleaf ([10]; Rate 62 g/ha, Postemergence): 5
Velvetleaf plant response rating ([10]; Rate 62 g/ha, Preemergence): 4
Plant response rating, Velvetleaf ([10]; Rate 125 g/ha, Postemergence): 8
Velvetleaf plant response rating ([10]; Rate 125 g/ha, Preemergence): 7
Plant response rating, Velvetleaf ([10]; Rate 250 g/ha, Postemergence): 8
Plant response rating, Velvetleaf ([10]; Rate 250 g/ha, Preemergence): 7
